In US12162858B2, “Quinoline derivatives as inhibitors of AXL/MER RTK and CSF1R” (QURIENT CO., LTD., priority 2018, dated 2024):

molecular target: T1, Axl (Homo sapiens, UniProt P30530); test: Cellular Axl inhibition ELISA (p-Axl, Gas6-induced) using H1299 cells; assay type: cell-based; design: especially H1299 cell endogenously expresses Axl; endogenous in cells; host or cells: H1299; conditions: read-out: Cellular Axl activity by H1299 Elisa (IC50)
T1 sequence (P30530 26-894): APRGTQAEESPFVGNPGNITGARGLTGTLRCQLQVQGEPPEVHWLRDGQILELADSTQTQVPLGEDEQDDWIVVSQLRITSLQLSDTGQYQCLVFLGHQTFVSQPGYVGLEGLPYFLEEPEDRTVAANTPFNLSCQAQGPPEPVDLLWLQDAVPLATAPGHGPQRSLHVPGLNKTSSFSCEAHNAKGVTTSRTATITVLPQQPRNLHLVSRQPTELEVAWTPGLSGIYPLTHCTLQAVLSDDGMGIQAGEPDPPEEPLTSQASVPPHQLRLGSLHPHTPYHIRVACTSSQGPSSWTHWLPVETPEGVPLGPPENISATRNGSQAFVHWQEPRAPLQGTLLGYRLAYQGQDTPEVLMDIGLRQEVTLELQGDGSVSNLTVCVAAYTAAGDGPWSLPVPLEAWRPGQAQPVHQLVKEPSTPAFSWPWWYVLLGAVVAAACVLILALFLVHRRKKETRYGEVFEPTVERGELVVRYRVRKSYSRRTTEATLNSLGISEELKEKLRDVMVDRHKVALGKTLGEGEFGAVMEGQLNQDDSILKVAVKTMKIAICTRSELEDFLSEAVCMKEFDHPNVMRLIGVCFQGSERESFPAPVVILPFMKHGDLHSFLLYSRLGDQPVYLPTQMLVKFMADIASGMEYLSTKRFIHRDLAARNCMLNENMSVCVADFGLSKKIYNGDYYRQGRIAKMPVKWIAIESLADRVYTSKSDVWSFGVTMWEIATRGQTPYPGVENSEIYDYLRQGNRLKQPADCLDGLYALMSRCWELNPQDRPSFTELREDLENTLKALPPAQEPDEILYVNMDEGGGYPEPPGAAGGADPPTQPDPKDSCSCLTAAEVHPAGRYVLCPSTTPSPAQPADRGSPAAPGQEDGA
Outline: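 H1299 cells, seeded overnight, exposed 24 h at 37 °C to 10-point 3-fold compound dilutions, then stimulated with 200 ng/ml human Gas6 (final) for 1 h. Lysates assayed for p-Axl by sandwich ELISA with HRP/TMB, absorbance 450 nm; IC50 by sigmoidal dose-response fit.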

SMILES | IC50
CCCn1cc(OCC(F)(F)F)c(C(=O)Nc2ccc(Oc3ccnc4cc(OC)c(OC)cc34)cc2C)n1 [Compound 27] | < 500 nM
COCCn1cc(OCC(F)(F)F)c(C(=O)Nc2ccc(Oc3ccnc4cc(OC)c(OC)cc34)cc2)n1 [Compound 61] | < 500 nM
COc1cc2nccc(Oc3ccc(NC(=O)c4nn(CC(C)O)cc4OCC(F)(F)F)nc3)c2cc1OC (centres unmarked) [Compound 17] | < 500 nM
COc1cc2nccc(Oc3ccc(NC(=O)c4nn(CC5CCCC5)cc4OCC(F)(F)F)nc3)c2cc1OC [Compound 71] | < 500 nM
CCCn1cc(OCCC(O)CO)c(C(=O)Nc2ccc(Oc3ccnc4cc(OC)c(OC)cc34)cn2)n1 (centres unmarked) [Compound 15] | ≥ 1000 nM
COc1cc2nccc(Oc3ccc(NC(=O)c4nn(CC(C)O)cc4OCC(F)F)nc3)c2cc1OC (centres unmarked) [Compound 175] | < 500 nM
CCCn1cc(OCC(F)(F)F)c(C(=O)Nc2ccc(Oc3ccnc4cc(OC)c(OC)cc34)nn2)n1 [Compound 32] | < 500 nM
CCCn1cc(OCC(F)(F)F)c(C(=O)Nc2ccc(Oc3ccnc4cc(OC)c(OC)cc34)cc2F)n1 [Compound 28] | < 500 nM
COc1cc2nccc(Oc3ccc(NC(=O)c4nn(C5CC5)cc4OCCC(F)(F)F)nc3)c2cc1OC [Compound 170] | < 500 nM
COc1cc2nccc(Oc3ccc(NC(=O)c4nn(CC5CCNC5)cc4OCC(F)(F)F)nc3)c2cc1OC (centres unmarked) [Compound 72] | ≥ 1000 nM
CCCn1cc(N(C)CC2CCOCC2)c(C(=O)Nc2ccc(Oc3ccnc4cc(OC)c(OC)cc34)cn2)n1 [Compound 34] | ≥ 1000 nM
COc1cc2nccc(Oc3ccc(NC(=O)c4nn(CC(C)C)cc4OCC(F)(F)F)cc3F)c2cc1OC [Compound 53] | < 500 nM
COc1cc2nccc(Oc3ccc(NC(=O)c4nc(CCC(F)(F)F)oc4CCC4CCC4)nc3)c2cc1OC [Compound 176] | < 500 nM
COc1cc2nccc(Oc3ccc(NC(=O)c4nn(C5CC5)c(C(C)=O)c4OCC(F)(F)F)nc3)c2cc1OC [Compound 3] | < 500 nM
CCCn1cc(OCCF)c(C(=O)Nc2ccc(Oc3ccnc4cc(OC)c(OC)cc34)cn2)n1 [Compound 14] | < 500 nM

Results, then the molecule that gave them:

IC50 | SMILES
< 500 nM | COc1cc2nccc(Oc3ccc(NC(=O)c4nn(CCN)cc4OCC(F)(F)F)c(F)c3)c2cc1OC [Compound 75]
≥ 1000 nM | COc1cc2nccc(Oc3ccc(NC(=O)c4nn(C)cc4OCC(F)(F)F)cc3C)c2cc1OC [Compound 37]
< 500 nM | COc1cc2nccc(Oc3ccc(NC(=O)c4nn(CCCN)cc4OCC(F)(F)F)nc3)c2cc1OC [Compound 68]
< 500 nM | COc1cc2nccc(Oc3ccc(NC(=O)c4nn(C[C@H](C)O)cc4OCC(F)(F)F)nc3)c2cc1OC [Compound 30]
< 500 nM | COc1cc2nccc(Oc3ccc(NC(=O)c4nn(CCC#N)cc4OCC(F)(F)F)nc3)c2cc1OC [Compound 39]
< 500 nM | CCCn1cc(NCC(F)(F)F)c(C(=O)Nc2ccc(Oc3ccnc4cc(OC)c(OC)cc34)cn2)n1 [Compound 23]
< 500 nM | CCCn1cc(OCC2CCC2)c(C(=O)Nc2ccc(Oc3ccnc4cc(OC)c(OC(F)(F)F)cc34)cn2)n1 [Compound 167]
< 500 nM | CCn1nc(C(=O)Nc2ccc(Oc3ccnc4cc(OC)c(OC)cc34)cn2)c(OCC(F)(F)F)c1C [Compound 1]
< 500 nM | COc1cc2nccc(Oc3ccc(NC(=O)c4nn(C5CCOC5)cc4OCC(F)(F)F)cc3)c2cc1OC (centres unmarked) [Compound 62]
< 500 nM | COc1cc2nccc(Oc3ccc(NC(=O)c4nn(CCO)cc4OCC(F)(F)F)nc3)c2cc1OC [Compound 67]
< 500 nM | COc1cc2nccc(Oc3ccc(NC(=O)c4nn(CCO)cc4OCC(F)(F)F)c(F)c3)c2cc1OC [Compound 46]
≥ 1000 nM | CCCn1cc(OC(C)C)c(C(=O)Nc2ccc(Oc3ccnc4cc(OC)c(OC(F)(F)F)cc34)c(F)c2)n1 [Compound 35]
< 500 nM | COc1cc2nccc(Oc3ccc(NC(=O)c4nn(CCC(F)(F)F)cc4OCC4CCC4)nc3)c2cc1OC [Compound 166]
< 500 nM | CCCn1cc(OCC(F)(F)F)c(C(=O)Nc2ccc(Oc3ccnc4cc(OC)c(OC)cc34)c(C)c2)n1 [Compound 26]
< 500 nM | COc1cc2nccc(Oc3ccc(NC(=O)c4nn(C5CCCCC5)cc4OCC(F)(F)F)nc3)c2cc1OC [Compound 69]
< 500 nM | COc1cc2nccc(Oc3ccc(NC(=O)c4nn(CC(C)C)cc4OCC(F)(F)F)cc3C)c2cc1OC [Compound 58]
< 500 nM | CCCCn1cc(OCC(F)(F)F)c(C(=O)Nc2ccc(Oc3ccnc4cc(OC)c(OC)cc34)cn2)n1 [Compound 36]
